In ChEMBL document CHEMBL1141401, “Structure-selectivity investigations of D2-like receptor ligands by CoMFA and CoMSIA guiding the discovery of D3 selective PET radioligands” (J Med Chem, 2007):

What was measured:
[1] = target: T1, D(4) dopamine receptor (Homo sapiens, UniProt P21917); assay: biochemical
T1 sequence (P21917 whole entry): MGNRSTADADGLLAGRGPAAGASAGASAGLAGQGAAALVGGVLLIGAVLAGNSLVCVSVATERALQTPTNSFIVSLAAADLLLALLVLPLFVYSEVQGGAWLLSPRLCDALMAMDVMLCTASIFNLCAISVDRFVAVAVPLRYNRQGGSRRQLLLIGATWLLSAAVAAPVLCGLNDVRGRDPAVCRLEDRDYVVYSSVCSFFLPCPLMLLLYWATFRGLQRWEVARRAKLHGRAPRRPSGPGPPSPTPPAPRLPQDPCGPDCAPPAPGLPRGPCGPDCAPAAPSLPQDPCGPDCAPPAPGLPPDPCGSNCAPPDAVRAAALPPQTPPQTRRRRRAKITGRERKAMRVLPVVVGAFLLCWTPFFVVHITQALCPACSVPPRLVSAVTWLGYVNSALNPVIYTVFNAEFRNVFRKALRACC
Description: Displacement of [3H]spiperone from human dopamine D4.4 expressed in CHO cell membrane

[2] = target: T2, D(2) dopamine receptor (Homo sapiens, UniProt P14416)
T2 sequence (P14416 whole entry): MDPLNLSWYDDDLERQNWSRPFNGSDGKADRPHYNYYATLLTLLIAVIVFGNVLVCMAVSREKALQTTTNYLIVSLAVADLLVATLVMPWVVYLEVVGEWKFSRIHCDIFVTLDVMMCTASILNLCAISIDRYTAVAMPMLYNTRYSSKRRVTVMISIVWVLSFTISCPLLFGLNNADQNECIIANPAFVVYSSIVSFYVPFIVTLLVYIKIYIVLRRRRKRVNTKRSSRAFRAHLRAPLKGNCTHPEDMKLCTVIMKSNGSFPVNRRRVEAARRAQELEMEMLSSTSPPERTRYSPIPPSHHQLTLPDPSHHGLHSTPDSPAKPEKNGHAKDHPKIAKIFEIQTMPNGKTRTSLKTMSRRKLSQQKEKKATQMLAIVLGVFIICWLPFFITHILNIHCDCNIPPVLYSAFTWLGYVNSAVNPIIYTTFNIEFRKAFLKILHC
Description: Binding affinity to dopamine D2

[3] = target: T3, D(3) dopamine receptor (Homo sapiens, UniProt P35462); assay: biochemical
T3 sequence (P35462 whole entry): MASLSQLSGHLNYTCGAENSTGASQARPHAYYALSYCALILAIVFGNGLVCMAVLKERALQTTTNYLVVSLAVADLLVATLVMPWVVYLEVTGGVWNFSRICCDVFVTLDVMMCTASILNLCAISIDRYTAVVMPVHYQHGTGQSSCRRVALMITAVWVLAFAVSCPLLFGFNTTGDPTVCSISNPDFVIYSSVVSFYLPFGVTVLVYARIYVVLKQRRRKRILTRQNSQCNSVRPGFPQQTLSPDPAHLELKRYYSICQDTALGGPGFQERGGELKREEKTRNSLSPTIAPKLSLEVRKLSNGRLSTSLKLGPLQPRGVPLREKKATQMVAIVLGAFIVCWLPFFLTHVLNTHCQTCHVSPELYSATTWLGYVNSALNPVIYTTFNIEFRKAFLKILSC
Description: (§1) Displacement of [3H]spiperone from human dopamine D3 expressed in CHO cell membrane

[4] = target: T3, D(3) dopamine receptor
Description: as §1

[5] = target: D(1A) dopamine receptor (Sus scrofa, UniProt P50130); assay: Displacement of [3H][…] from porcine dopamine D1 in porcine striatal membrane; type: cell membranes, Striatum
D(1A) dopamine receptor, sequence (P50130 whole entry): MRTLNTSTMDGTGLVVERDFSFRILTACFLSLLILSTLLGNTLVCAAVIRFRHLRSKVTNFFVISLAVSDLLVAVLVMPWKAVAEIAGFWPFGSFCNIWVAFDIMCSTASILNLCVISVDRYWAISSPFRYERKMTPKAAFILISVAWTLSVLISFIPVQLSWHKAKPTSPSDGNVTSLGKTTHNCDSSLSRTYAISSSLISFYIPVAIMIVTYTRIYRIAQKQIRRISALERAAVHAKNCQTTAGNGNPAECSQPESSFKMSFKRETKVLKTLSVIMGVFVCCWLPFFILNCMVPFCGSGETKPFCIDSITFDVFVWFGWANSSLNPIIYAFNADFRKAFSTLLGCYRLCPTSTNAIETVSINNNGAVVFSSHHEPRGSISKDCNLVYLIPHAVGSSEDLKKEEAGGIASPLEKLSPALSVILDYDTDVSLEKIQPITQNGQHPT

[6] = target: T4, 5-hydroxytryptamine receptor 1A (Homo sapiens, UniProt P08908); assay: Displacement of [3H]8-OH-DPAT from human 5HT1A receptor expressed in CHO cells; type: cell-based
T4 sequence (P08908 whole entry): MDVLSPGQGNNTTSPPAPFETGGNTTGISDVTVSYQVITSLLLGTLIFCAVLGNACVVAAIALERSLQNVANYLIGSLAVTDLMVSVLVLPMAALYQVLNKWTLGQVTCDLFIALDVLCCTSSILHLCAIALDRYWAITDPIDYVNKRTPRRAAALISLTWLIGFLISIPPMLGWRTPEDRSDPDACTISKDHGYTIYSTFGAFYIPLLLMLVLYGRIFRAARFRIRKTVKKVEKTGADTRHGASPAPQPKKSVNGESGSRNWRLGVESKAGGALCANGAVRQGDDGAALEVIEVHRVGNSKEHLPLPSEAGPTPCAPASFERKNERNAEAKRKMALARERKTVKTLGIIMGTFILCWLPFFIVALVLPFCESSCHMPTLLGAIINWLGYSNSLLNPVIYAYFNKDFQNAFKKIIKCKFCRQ

[7] = target: Serotonin 2 (5-HT2) receptor (Homo sapiens, UniProt P41595+P28223+P28335); assay: Displacement of [3H]ketanserin from human 5HT2 receptor expressed in CHO cells; type: cell-based
[8] = target: T2, D(2) dopamine receptor; assay: Displacement of [3H]spiperone from human dopamine D2(short) expressed in CHO cell membrane
[9] = target: T2, D(2) dopamine receptor; assay: Displacement of [3H]spiperone from human dopamine D2(long) expressed in CHO cell membrane

| Compound | Ki [1] [nM] | Ki [2] [nM] | Ki [3] [nM] | also measured |
| --- | --- | --- | --- | --- |
| O=C(NCCCCN1CCN(c2ccccc2Cl)CC1)c1ccc(Cl)cc1 | 282 | 468 | 1.7 |  |
| Cc1cccc2c(CN3CCN(c4ccc(Cl)cc4)CC3)cnn12 |  |  | 3720 |  |
| COc1ccccc1N1CCN(CCCCNC(=O)c2cc3cc(C#N)ccc3[nH]2)CC1 | 24 | 141 | 0.575 |  |
| COc1ccc(C(=O)NCCCCN2CCN(c3ccccc3Cl)CC2)cc1OC | 170 | 282 | 3.09 |  |
| Cc1c(C(=O)NCCCCCN2CCN(c3cccc(Cl)c3Cl)CC2)nnn1Cc1ccccc1 | 251 | 10 | 8.51 |  |
| O=C(NCCCCN1CCN(c2ccccc2Cl)CC1)c1ccc2ccccc2c1 | 200 | 457 | 1 |  |
| N#Cc1ccc2cc(C(=O)NCCCCN3CCN(c4cccc(Cl)c4Cl)CC3)[nH]c2c1 | 631 | 339 | 0.355 |  |
| COc1ccccc1N1CCN(CCCCCNC(=O)c2nnn(Cc3ccccc3)c2C)CC1 | 158 | 9.33 | 15.8 |  |
| COc1ccccc1N1CCN(CCCCNC(=O)c2nnn(Cc3ccccc3)c2C)CC1 | 977 | 229 | 67.6 |  |
| O=C(NCCCCN1CCN(c2cccc(Cl)c2Cl)CC1)c1cc2cc(Br)ccc2[nH]1 | 603 | 2290 | 0.741 |  |
| C#Cc1ccc2sc(C(=O)NCCCCN3CCN(c4ccccc4OC)CC3)cc2c1 | 30.9 | 407 | 0.389 |  |
| COc1ccccc1N1CCN(CCCCCNC(=O)c2nnn(Cc3ccccc3Br)c2C)CC1 | 41.7 | 4.9 | 15.1 |  |
| COc1ccccc1N1CCN(CCCCNC(=O)c2cc3cc(C#N)ccc3s2)CC1 | 44.7 | 67.6 |  | Ki [4]: 0.457 nM |
| CCCc1c(C(=O)NCCCCN2CCN(c3ccccc3OC)CC2)nnn1Cc1ccccc1 | 302 | 57.5 | 11 |  |
| CCCc1c(C(=O)NCCCCN2CCN(c3ccccc3OC)CC2)nnn1Cc1ccc(OC)cc1 | 129 | 42.7 | 12.9 |  |
| COc1ccccc1N1CCN(CCCCNC(=O)c2nnn(Cc3ccccc3Br)c2C)CC1 | 91.2 | 61.7 | 32.4 |  |
| C#Cc1ccc2cc(C(=O)NCCCCN3CCN(c4ccccc4OC)CC3)sc2c1 | 151 | 200 | 0.38 |  |
| COc1ccc(Cn2nnc(C(=O)NCCCCCN3CCN(c4ccccc4OC)CC3)c2C)cc1 | 269 | 17 | 87.1 |  |
| Clc1ccc(N2CCN(Cc3cnn4c(I)cccc34)CC2)cc1 |  | 7590 | 2690 |  |

| Compound | Ki [1] [nM] | Ki [2] [nM] | Ki [3] [nM] | also measured |
| --- | --- | --- | --- | --- |
| OCc1ccc2c(CN3CCN(c4ccc(Cl)cc4)CC3)cnn2c1 | 19.5 | 27500 |  |  |
| c1ccc(C2CCN(Cc3cnn(-c4ccccc4)c3)CC2)cc1 | 0.589 | 38 | 33.1 |  |
| Cc1c(C(=O)NCCCCN2CCN(c3cccc(Cl)c3Cl)CC2)nnn1Cc1ccccc1 | 282 | 38.9 | 4.27 |  |
| c1ccc(C2CCN(Cc3cn(-c4ccccc4)nn3)CC2)cc1 | 3.24 | 219 | 93.3 |  |
| COc1ccccc1N1CCN(CCCCNC(=O)c2cc3cc(C#N)ccc3o2)CC1 |  |  | 4.27 |  |
| COc1ccccc1N1CCN(CCCCNC(=O)c2cc3ccc(C#N)cc3[nH]2)CC1 | 39.8 | 158 |  | Ki [4]: 0.251 nM |
| CCCc1c(C(=O)NCCCCCN2CCN(c3ccccc3OC)CC2)nnn1Cc1ccccc1Br | 39.8 | 5.25 | 7.41 |  |
| COc1ccccc1N1CCN(CCCCNC(=O)c2cc3cc(Br)ccc3o2)CC1 | 17 | 95.5 |  | Ki [4]: 0.692 nM |
| O=C(NCCCCN1CCN(c2cccc(Cl)c2Cl)CC1)c1cc2ccccc2[nH]1 |  |  | 0.661 |  |
| COc1ccc(Cn2nnc(C(=O)NCCCCN3CCN(c4ccccc4OC)CC3)c2C)cc1 | 282 | 55 | 28.8 |  |
| COc1ccc(Cn2nnc(C(=O)NCCCCCN3CCN(c4cccc(Cl)c4Cl)CC3)c2C)cc1 | 288 | 9.12 | 33.9 |  |
| COc1ccccc1N1CCN(CCCCNC(=O)c2ccc(-c3cccc([18F])n3)cc2)CC1 | 28 |  | 0.37 | Ki [5]: 870 nM; Ki [6]: 16 nM; Ki [7]: 450 nM; Ki [8]: 16 nM; Ki [9]: 27 nM |
| CCCc1c(C(=O)NCCCCN2CCN(c3ccccc3OC)CC2)nnn1Cc1ccccc1Br | 75.9 | 21.9 | 3.47 |  |
| O=C(NCCCCN1CCN(c2ccccc2Cl)CC1)c1ccc(-c2ccccc2)cc1 | 240 | 129 | 0.28 |  |
| COc1ccccc1N1CCN(CCCCNC(=O)c2ccc(-c3ccc([18F])nc3)cc2)CC1 | 34 |  | 0.45 | Ki [5]: 1300 nM; Ki [6]: 21 nM; Ki [7]: 760 nM; Ki [8]: 12 nM; Ki [9]: 15 nM |
| O=C(NCCCCN1CCN(c2cccc(Cl)c2Cl)CC1)c1cc2cc(Br)ccc2o1 | 3090 | 10000 | 3.47 |  |
| COc1ccccc1N1CCN(CCCCNC(=O)c2cc3cc(Br)ccc3[nH]2)CC1 | 15.8 | 110 | 0.245 |  |
| CCCc1c(C(=O)NCCCCN2CCN(c3cccc(Cl)c3Cl)CC2)nnn1Cc1ccccc1 | 219 | 14.1 | 2.4 |  |
